Results as given in patent publication US20250127698A1, “Hair Perming Compositions With Amine Derivatives” (ELC Management LLC, priority 2023, published 2025).

What was measured:
[1] = active component of alkalizer; cited from earlier work
[2] = DSC keratin denaturation temperature change after curling treatment; set-up: species or system human; conditions: for ΔT (TUntreated−TAlkalizer, keratin denaturation temperature): Type 1 Chinese hair after curling treatment, larger ΔT indicates more damage; for damage to hair (in words): hair curling treatment, Type 1 Chinese hair
From the text: (§1) This damage occurs at the level of keratin proteins.
(§2) Untreated hair was used as a control.
(§3) A larger ΔT indicates more damage.

[3] = DSC keratin denaturation temperature change after straightening treatment; set-up: species or system human; conditions: for ΔT (TUntreated−TAlkalizer, keratin denaturation temperature): Type 3 Caucasian hair after straightening, larger ΔT indicates more damage
From the text: as §1, §2, §3

[4] = DSC keratin denaturation temperature change after curling treatment; conditions: Type 1 Caucasian hair after curling treatment; larger ΔT indicates more damage
Method: It is known that the denaturation of keratin in hair can be detected by differential scanning calorimetry (DSC). DSC is a thermal analysis technique used to measure phase transition temperatures and heat of transformation (enthalpy) for endothermic and exothermic reactions.
For all of the test samples discussed above, DSC measurements were performed using the Discovery DSC 2500 (from TA Instruments. New Castle, DE). The experiments were carried out over a temperature range of 40° C. to 200° C., with a scan rate of 5° C./min under nitrogen protection. DSC samples were prepared by cutting tress samples into pieces (0.1 to 1.0 mm in size) and weighing. The hair samples were mixed with deionized water, and then sealed in high volume pans for at least 6 hours before measuring. The phase transition temperature (keratin denaturation temperature) of each hair sample was analyzed using TRIOS software (Discovery DSC 2500). Untreated hair was used as a control.
Each hair sample was analyzed at least twice, and the average temperature was obtained for data analysis. This was subtracted from the denaturation temperature of the control sample (ΔT=TUntreated−TAlkalizer). A larger ΔT indicates more damage.

[5] = Curl efficiency after hair curling treatment; set-up: species or system human; conditions: for curl after the equivalent of 8 washes (in words) / curl lost after the equivalent of 8 washes, as percentage of initial curl (in words): Caucasian hair; for % Change In Curl Efficiency From 1 to 8 Washes / imparting curl (in words) / Curl Efficiency (%) After Treatment, 1 Wash and Dry / Curl Efficiency (%) After Treatment, 8 Washes and Dry: Type 1 Caucasian hair; for Curl Efficiency (%) After Treatment, 1 Wash and Dry: 1 wash with 5% SDS solution; for Curl Efficiency (%) After Treatment, 8 Washes and Dry: equivalent of 8 washes with 5% SDS solution
From the text: (§4) The ability of each test composition to curl hair was established by measuring “curl efficiency”. Curl efficiency is a measure of curl tightness following a hair curling treatment. The higher the efficiency, the tighter the curl. We used a well-known method of measuring curl efficiency, wherein a portion of untreated straight hair of known length, Lu, is secured on an arrangement of pegs to form a sine wave pattern of five cycles, crest-to-crest. Because the pegs are fixed, the ideal length, Li, of the portion of hair when arranged into the five-cycle wave pattern, is known. Starting with a straight swatch of hair of length Lu, the ideal outcome would be a curled swatch of hair with a length of Li. Curl efficiency is a measure of how closely the ideal is attained.
(§5) Two types of hair samples were tested for curling; mixed sourced virgin Type 1Caucasian hair, and single sourced virgin Type 1 hair. For straightening, mixed sourced virgin Type 2C (very wavy) Caucasian hair was tested. Hair straightening test samples were prepared by collecting hair fibers into tresses, and clamping each tress at both ends. For those test samples that were to undergo a straightening treatment, the length, Lu, was measured between two previously determined points.
(§6) Each hair tress was wetted (reverse osmosis water). For curling, each hair tress was wound along a peg board to form a sine wave pattern of five cycles, as described above. For straightening, each hair tress was held on a board in a straight conformation, tension was applied, and the ends of the tress were secured. All test samples (curling or straightening) were allowed to dry before proceeding. Each board with a hair tress test sample was dipped for 10 seconds into a beaker with one of the hair perming compositions. After removing a board from solution, it was immediately placed in an oven for 20 minutes at 37° C. (normal body temperature). The test sample was removed from the oven, and rinsed for five minutes with 37° C. water, being careful not to allow the running water to fall directly on the hair tresses. After blotting with a paper towel, test samples were allowed to rest for five minutes at room temperature, for air oxidation to occur. The hair straightening test samples were removed from the board, blow dried and flat ironed at 200° C., which is commonly done in salon practice. At this point, the ideal length, Li, was measured between the two previously determined point mentioned above. Thereafter, each sample was rebound to the board.
(§7) Each bound hair tress was submerged for ten seconds in a 2% solution of H2O2 to neutralize the reducing agent and promote S-S bond formation, so that the hair tress would retain a desired shape (sine wave pattern or straight) when removed from the board. Each hair tress rested at room temperature for about five minutes, then was rinsed under 37° C. running water for five minutes, and subsequently blotted with a paper towel. Each test sample hair tress was removed from the board, laid on a flat surface, and allowed to dry. The fully permed dry tresses were washed in 5% SDS (sodium dodecyl sulfate) solution (which simulates salon practice) and allowed to dry overnight.
(§8) For the curling test samples, the length, Lt, of five waves, crest to crest was measured. For the straightening test samples, the final length, Lt, was measured between the two previously determined points. At this point, differential scanning calorimetry (DSC) measurements were made on a portion of each hair tress test sample. Also, for longevity performance, each tress was subjected to the equivalent of eight hand washings in 5% SDS solution using the GyroWash color fastness to laundering tester, and allowed to dry, before another length measurement, Lt, was made.
(§9) Curl efficiencies were computed using Equation 1.
(§10) [formula] • Lu=length of the untreated hair tress • Lt=crest-to-crest length of the five-wave portion of the treated hair tress • Li=ideal length of curled hair […]

[6] = Curl efficiency after hair curling treatment; set-up: species or system human; % Change In Curl Efficiency From 1 to 8 Washes: concentration or dose not given beside the values; conditions: for curl after the equivalent of 8 washes (in words) / curl lost after the equivalent of 8 washes, as percentage of initial curl (in words): Chinese hair; for % Change In Curl Efficiency From 1 to 8 Washes / imparting curl (in words) / Curl Efficiency (%) After Treatment, 1 Wash and Dry / Curl Efficiency (%) After Treatment, 8 Washes and Dry: Type 1 Chinese hair; for Curl Efficiency (%) After Treatment, 1 Wash and Dry: 1 wash with 5% SDS solution; for Curl Efficiency (%) After Treatment, 8 Washes and Dry: equivalent of 8 washes with 5% SDS solution
From the text: as §4, §5, §6, §7, §8, §9, §10

[7] = pH of hair perming composition; type: physicochemical; conditions: for pH: hair perming composition: base of Table 2 (7.50% thioglycolic acid) plus alkalizer, same molar percentage of alkalizer
From the text: For testing, we prepared the hair perming compositions shown by Tables 2 and 3, below. […] All compositions contain the same molar percentage of alkalizer, the water content being adjusted accordingly.

[8] = Straightening efficiency after hair straightening treatment; set-up: species or system human; conditions: Type 2C Caucasian hair; 1 wash with 5% SDS solution
From the text: The ability of each test composition to straighten curly hair was established by measuring “straightening efficiency”. Straightening efficiency represents the degree to which curly hair is made straight by a hair straightening treatment. We start with a curly, untreated hair tress of length Lu. The tress has an ideal straight length of Li, which is the length of the untreated tress when flat ironed to its maximum, straight length. After treatment the tress has a length of Lt. Straightening efficiency is the gain in length as a percentage of the maximum possible gain in length. […] A straightening efficiency of 100% means that the treated tress retained the maximum possible length.
as §5, §6, §7, §8
Straightening efficiencies were computed using Equation 2.
[formula] • Lu=length of the untreated hair tress • Lt=length of treated hair tress • Li=ideal length of straightened hair
(Li−Lu) represents the maximum possible increase in length as a result of treatment. […]

Row | Compound | pKa [1] | ΔT (TUntreated−TAlkalizer, keratin denaturation temperature) [2] | ΔT (TUntreated−TAlkalizer, keratin denaturation temperature) [3] | ΔT (TUntreated−TAlkalizer, keratin denaturation temperature) [4] | curl after the equivalent of 8 washes (in words) [5] | curl lost after the equivalent of 8 washes, as percentage of initial curl (in words) [5] | % Change In Curl Efficiency From 1 to 8 Washes [5] | imparting curl (in words) [5] | Curl Efficiency (%) After Treatment, 1 Wash and Dry [5] | Curl Efficiency (%) After Treatment, 8 Washes and Dry [5] | curl after the equivalent of 8 washes (in words) [6] | curl lost after the equivalent of 8 washes, as percentage of initial curl (in words) [6] | % Change In Curl Efficiency From 1 to 8 Washes [6] | imparting curl (in words) [6] | Curl Efficiency (%) After Treatment, 1 Wash and Dry [6] | Curl Efficiency (%) After Treatment, 8 Washes and Dry [6] | damage to hair (in words) [2] | pH of alkalizer composition ([7]; Table 7) | pH of alkalizer composition ([7]; Table 8) | pH of alkalizer composition ([7]; Table 9) | also measured
1 | CC(C)(N)CO [AMP, Aminomethyl propanol, reference compound] | 9.82 | 1.65 C. ° | 2.60 °C | 3.11 °C |  |  |  |  |  |  |  |  |  |  |  |  |  |  |  |  | 
2 | DL-2-amino-1-propanol [DL-2-AP] | 9.6 | 3.49 C. ° | 3.20 °C | 3.95 °C | still had the most curl | lost the most curl of the tested samples | −11.11% | best at imparting curl | 50.47% | 44.86% | still had the most curl | lost the most curl of the tested samples | −21.01% | best at imparting curl | 69.81% | 55.14% | did not perform as well as the other alkalizers | 9.45 | 9.45 | 9.45 | damage to hair (in words) ([3]; hair straightening treatment, Type 3 Caucasian hair): more damage than ammonium hydroxide, MEA or AMP; pH [7]: 9.45; Straightening Efficiency (%) After Treatment, 1 Wash and Dry [8]: 95.35%
3 | NCC(O)CO (stereo not drawn) [Isoserinol, 3-Amino-1,2-propanediol] |  | 2.51 C. ° | 2.17 °C | 3.07 °C | ranked second for curl | comparable to or better than the standards | −7.69% | next best at imparting curl | 48.60% | 44.86% | ranked second for curl | comparable to or better than the standards | −10.93% | next best at imparting curl | 59.81% | 53.27% | did not perform as well as the other alkalizers | 9.18 | 9.18 | 9.18 | pH [7]: 9.18; Straightening Efficiency (%) After Treatment, 1 Wash and Dry [8]: 97.30%
